Bounds are passed on as bounds.

The test system of the first test is 80S14 (p21-deficient) cells. Put plainly: Determination of selectivity of compounds for p21-/- cells: IC50 in 80S14 cells (SRB). Particulars: 80S14 (p21-deficient) cells, 5 days at 37° C., SRB; read-out: IC50 for 80S14. It counts as cell-based, human. How it is done:
• 1. 80S14 (p21-deficient) cells were cultured in RPMI 1640 medium (Gibco/Invitrogen Life technologies) supplemented with 10% fetal bovine serum (FBS, Gibco) and 10 μg/ml gentamycin (Gibco). Cells were maintained at 37° C. under 7% CO2. • 2. Cells were plated at 6×10^4/ml (0.2 ml/well; 12,000 cells/well) in 96-well microtiter plates (Falcon or Corning/Costar) and incubated at 37° C. overnight (18-24 hours). • 3. 2-5 μl of the test agent-[200 μg/ml stock in 20% DMSO/20 mM HEPES, pH 7.5 (Gibco)] was added to each well to achieve a final concentration of 2-5 μg/ml. Cells were incubated with the test compounds for 5 days at 37° C. • 4. Surviving cells were fixed with 50 μl 50% trichloroacetic acid (Sigma; 10% final concentration) for 1 hour at 4° C. • 5. Plates were rinsed twice with water (0.3 ml per wash using MRD8 robot), and allowed to dry. • 6. Sulforhodamine B (SRB) (Sigma; 0.4% in 1% acetic acid, 50 μl per well; MRD8 robot) was added and plates kept at room temperature for 10 minutes. • 7. Excess dye was removed by washing with 1% acetic acid (3 times, 0.3 ml per wash; MRD8 robot) and allowed to dry. • 8. The dye was solubilized in Tris base (Sigma; 10 mM, 150 μl per well). Plates were kept at room temperature for 30 minutes to allow the dye to diffuse. • 9. Absorbance was measured at 540 nm. • 10. The percentage of cells surviving drug treatment relative to control wells (no drug) was determined. • 11. The difference in % cell survival between the two cell lines was calculated. • 12. Compounds producing a difference score of >50 were considered to be selective for the p21-deficient cells and were evaluated further. Determination of Selectivity of Compounds for p21−/− Cells: • 1. 80S14 cells were cultured as described above. • 2. Cells were seeded in 96-well microtiter plates at 12,000 cells/well (either 0.15 ml/well of 8×10^4 cells/ml suspension, or 0.2 ml/well of 6×10^4 cells/ml suspension). Plates were incubated at 37° C. overnight (18-24 hours). • 3. Serial dilutions of the test agent were added to each well. Dilutions were prepared either in 40% DMSO/20% methanol/20 mM HEPES, pH 7.5 (Gibco) or directly in growth medium. One of two dose ranges were used: 5 pM to 50 μM or 170 pg/ml to 10 μg/ml. Cells were incubated with the test compounds for 5 days at 37° C. • 4. Surviving cells were fixed with 50 μl 50% trichloroacetic acid (Sigma; 10% final concentration) for 1 hour at 4° C. • 5. Plates were rinsed extensively in water, and allowed to dry. • 6. Sulforhodamine B (Sigma; 0.4% in 1% acetic acid, 70 μl per well) was added and plates kept at room temperature for 10 minutes. • 7. Excess dye was removed by washing 5 times with 1% acetic acid and plates were allowed to dry. • 8. The dye was solubilized in Tris base (Sigma; 10 mM, 150 μl per well). Plates were placed on a titer plate shaker (Lab Line Instruments) for 5 minutes to allow the dye to diffuse. • 9. Absorbance was measured at 560 nm.
10. The drug concentration which inhibits cell proliferation by 50% relative to untreated controls (IC50) was determined from cytotoxicity curves.
As for `C[C@H](N)C(=O)Nc1cccc(-c2ccnc3c(C(=O)c4cccs4)cnn23)c1` [Example 60, N-1-{3-[3-(thien-2-ylcarbonyl)pyrazolo[1,5-a]pyrimidin-7-yl]phenyl}-L-alaninamide], the IC50 is 1 to 10 µM.

Turning to `CC12CCC(C(=O)Nc3cccc(-c4ccnc5c(C(=O)c6cccs6)cnn45)c3)(OC1=O)C2(C)C` (stereo not drawn) [Example 43], the IC50 is < 1 µM.

As for `NCC(=O)Nc1cccc(-c2ccnc3c(C(=O)c4cccs4)cnn23)c1` [Example 59, N-1--{3-[3-(thien-2-ylcarbonyl)pyrazolo[1,5-a]pyrimidin-7-yl]phenyl}glycinamide], the IC50 is 10 to 50 µM.

As to `O=C(CNC(=O)NC1CCCCC1)Nc1cccc(-c2ccnc3c(C(=O)c4cccs4)cnn23)c1` [Example 120, N-2-[(cyclohexylamino)carbonyl]-N-1-{3-[3-(thien-2-ylcarbonyl)pyrazolo[1,5-a]pyrimidin-7-yl]phenyl}glycinamide], the IC50 lay in the range of 1 to 10 µM.

As to `CCNC(=O)NCC(=O)Nc1cccc(-c2ccnc3c(C(=O)c4cccs4)cnn23)c1` [Example 119, N-2-[(ethylamino)carbonyl]-N-1-{3-[3-(thien-2-ylcarbonyl)pyrazolo[1,5-a]pyrimidin-7-1yl]phenyl}glycinamide], the IC50 fell in the range of 1 to 10 µM.

`O=C(c1cccs1)c1cnn2c(-c3cccc(NC(=O)C(Cl)(Cl)Cl)c3)ccnc12` [Example 38, 2,2,2-trichloro-N-{3-[3-(thien-2-ylcarbonyl)pyrazolo[1,5-a]pyrimidin-7-yl]phenyl} acetamide]: the IC50 was in the range of 1 to 10 µM.

Staying with this test, now noted: Cellular activity in 80S14 (p21-deficient) cells, SRB; class symbols; read-out: IC50 for 80S14.
On to `Cc1cc(-c2cccc(NC(=O)C3CO3)c2)n2ncc(C(=O)c3cccs3)c2n1` (stereo not drawn) [Example 191, {3-[5-Methyl-3-(2-thienylcarbonyl)pyrazolo[1,5-a]pyrimidin-7-yl]phenyl}-2-oxiranecarboxamide], for which the IC50 was < 1 µM.

Consider “3-(3,5-Dimethylphenyl)-7-{3-[2-(2-piperidin-1-ylethyl)-2H-tetrazol-5-yl]phenyl}pyrazolo[1,5-a]pyrimidine [Example 388]”, for which the IC50 is 1 to 10 µM.

The test is the same for the next values; noted with them: Homo sapiens, 120 h; 80S14 (p21-deficient) cells, 5 days at 37° C., SRB; read-out: IC50 for 80S14.
Consider `O=C(Nc1cccc(-c2ccnc3c(C(=O)c4cccs4)cnn23)c1)c1ccc(Cl)cc1` [Example 71, 4-chloro-N-{3-[3-(thien-2-ylcarbonyl)pyrazolo[1,5-a]pyrimidin-7-yl]phenyl}benzamide], for which the IC50 fell in the range of 1 to 10 µM.

Turning to `C[C@H](NC(=O)Nc1cccc(-c2ccnc3c(C(=O)c4cccs4)cnn23)c1)c1ccccc1` [Example 9, N-[(1S)-1-phenylethyl]-N′-{3-[3-(thien-2-ylcarbonyl)pyrazolo [1,5-a]pyrimidin-7-yl]phenyl}urea], the IC50 was 1 to 10 µM.

As for `CC(C)(C)C(=O)NCC(=O)Nc1cccc(-c2ccnc3c(C(=O)c4cccs4)cnn23)c1` [Example 114, 2,2-dimethyl-N-[2-oxo-2-({3-[3-(thien-2-ylcarbonyl)pyrazolo[1,5-a]pyrimidin-7-yl]phenyl}amino)ethyl]propanamide], the IC50 is 1 to 10 µM.

With `CCCC(Cl)CC(=O)Nc1cccc(-c2ccnc3c(C(=O)c4cccs4)cnn23)c1` (stereo not drawn) [Example 121, 3-chloro-N-{3-[3-(thien-2-ylcarbonyl)pyrazolo[1,5-a]pyrimidin-7-yl]phenyl}hexanamide], the IC50 was < 1 µM.

For `C/C=C/C(=O)Nc1cccc(-c2ccnc3c(C(=O)c4cccs4)cnn23)c1` [Example 129, (2E)-N-{3-[3-(thien-2-ylcarbonyl)pyrazolo[1,5-a]pyrimidin-7-yl]phenyl}but-2-enamide], the IC50 lay in the range of 1 to 10 µM.

The same test, now with this note: Homo sapiens; Cellular activity in 80S14 (p21-deficient) cells, SRB; class symbols; read-out: IC50 for 80S14.
Consider `O=C(CCc1cccnc1)Nc1cccc(-c2ccnc3c(C(=O)c4cccs4)cnn23)c1` [Example 336, 3-Pyridin-3-yl-N-{3-[3-(thien-2-ylcarbonyl)pyrazolo [1,5-a]pyrimidin-7-yl]phenyl}propanamide], for which the IC50 lay within 1 to 10 µM.

Turning to `CN1CCC(C(=O)Nc2cccc(-c3ccnc4c(C(=O)c5cccs5)cnn34)c2)CC1` [Example 307, 1-Methyl-N-{3-[3-(thien-2-ylcarbonyl)pyrazolo[1,5-a]pyrimidin-7-yl]phenyl}piperidine-4-carboxamide], the IC50 was 10 to 50 µM.

The values above are taken from patent US20060063785A1, “Substituted pyrazolo[1,5-a] pyrimidines and process for making same” (priority 2004, published 2006).
